According to patent US20220380829A1, “Method of Diagonosizing Pathogens and their Antimicrobial Susceptibility” (HANGZHOU DIAN MEDICAL LABORATORY CO., LTD., priority 2019, published 2022):

Key:
Assay type in all cases: cell-based
[1] = system: Staphylococcus aureus; assay: VITEK2 Compact AST (AST-P639 card), gold standard culture-based AST; conditions: for Resistance profiles by VITEK2: R: number of resistant among 22 blinds; for Resistance profiles by VITEK2: S: number of susceptible among 22 blinds
Protocol: Step 1. Sample collection and drug susceptibility verification: 160 clinical Staphylococcus aureus isolates were collected from 20 hospitals across china in a period between June 2018 and June 2019. All isolates were tested for drug susceptibility using bioMérieux Vitek2 Compact System and AST-P639 card, and specifically, and the results were used as the gold standard (culture-based AST).

[2] = system: Streptococcus pneumoniae; assay: VITEK2 Compact AST (AST-GP68 cards) with penicillin disc diffusion, gold standard culture-based AST
Protocol: (§1) Step 1. Drug susceptibility verification: The Streptococcus pneumoniae isolates were tested for drug susceptibility using bioMérieux Vitek2 Compact System and AST-GP68 cards, and specifically, the susceptibility of penicillin was double checked by disc diffusion method (OXOID, CT0043B), and the combined results were used as the gold standard (culture-based AST).
as §1, with “Sample collection and drug” for “Drug”, “48 clinical” for “The”, “pneumoniae isolates were collected from 18 hospitals across china in a period between May 2017 and October 2019. All” for “pneumoniae”, “card,” for “cards,”

[3] = system: Enterococcus faecalis; assay: VITEK2 Compact AST (AST-P639 cards), gold standard culture-based AST
[4] = system: Klebsiella pneumoniae; assay: VITEK2 Compact AST (AST-GN13/GN334 cards), gold standard culture-based AST
Excerpt: Step 1. Sample collection and drug susceptibility verification: 240 clinical Klebsiella pneumoniae isolates were collected from 23 hospitals across china in a period between January 2018 and March 2019.

[5] = Resistance profile classification A
[6] = Resistance profile classification B
[7] = Resistance profile classification C
[8] = Resistance profile classification D
[9] = Resistance profile classification G
[10] = Resistance profile classification H
[11] = Resistance profile classification I
[12] = Resistance profile classification J
[13] = Resistance profile classification S

penicillin
2: Resistance profiles by VITEK2: S [1]
20: Resistance profiles by VITEK2: R [1]
S: Blind 1 by AST ([2]; Blind 1) | Susceptibility of Streptococcus pneumoniae to 14 antibacterial drugs [2, 9] | Susceptibility of Streptococcus pneumoniae to 14 antibacterial drugs [2, 10] | Susceptibility of Streptococcus pneumoniae to 14 antibacterial drugs [2, 11] | Susceptibility of Streptococcus pneumoniae to 14 antibacterial drugs [2, 12] | Susceptibility of Streptococcus pneumoniae to 14 antibacterial drugs [2, 13] | Susceptibility of Emterococcus faecalis to 11 antibacterial drugs [3, 9] | Susceptibility of Emterococcus faecalis to 11 antibacterial drugs [3, 10] | Susceptibility of Emterococcus faecalis to 11 antibacterial drugs [3, 11] | Susceptibility of Emterococcus faecalis to 11 antibacterial drugs [3, 12] | Susceptibility of Emterococcus faecalis to 11 antibacterial drugs ([3]; Resistance profile classification K) | Susceptibility of Emterococcus faecalis to 11 antibacterial drugs ([3]; Resistance profile classification L) | Susceptibility of Emterococcus faecalis to 11 antibacterial drugs ([3]; Resistance profile classification M) | Susceptibility of Emterococcus faecalis to 11 antibacterial drugs [3, 13]
R: Susceptibility of Streptococcus pneumoniae to 14 antibacterial drugs [2, 5] | Susceptibility of Streptococcus pneumoniae to 14 antibacterial drugs [2, 6] | Susceptibility of Streptococcus pneumoniae to 14 antibacterial drugs [2, 7] | Susceptibility of Streptococcus pneumoniae to 14 antibacterial drugs [2, 8] | Susceptibility of Streptococcus pneumoniae to 14 antibacterial drugs ([2]; Resistance profile classification E) | Susceptibility of Streptococcus pneumoniae to 14 antibacterial drugs ([2]; Resistance profile classification F) | blind 2 by AST ([2]; blind 2) | Susceptibility of Emterococcus faecalis to 11 antibacterial drugs [3, 5] | Susceptibility of Emterococcus faecalis to 11 antibacterial drugs [3, 6] | Susceptibility of Emterococcus faecalis to 11 antibacterial drugs [3, 7] | Susceptibility of Emterococcus faecalis to 11 antibacterial drugs [3, 8] | Susceptibility of Emterococcus faecalis to 11 antibacterial drugs ([3]; Resistance profile classification F (first line so labelled, r12)) | Susceptibility of Emterococcus faecalis to 11 antibacterial drugs ([3]; Resistance profile classification F (second line so labelled, r13))

Gentamicin
7: Resistance profiles by VITEK2: R [1]
15: Resistance profiles by VITEK2: S [1]
12: Resistance profiles by VITEK2: R ([4]; number of resistant among 24 blinds) | Resistance profiles by VITEK2: S ([4]; number of susceptible among 24 blinds)
